This note sets out measurements from ChEMBL document CHEMBL1201862, “PubChem BioAssay data set” (2004).

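Interpolation was linear, between the two tested concentrations surrounding the appropriate level; five concentrations were tested over 48 hours in 96-well plates. Abbreviation: GI50, concentration required for 50% inhibition of growth.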 Calls of active or inactive are those of the source. Rule as the data show it: active = GI50 up to about 1.1 µM and inactive = higher. A value given as a limit tells only on which side of the number the result lay.

Assay in all cases: NCI tumour cell line growth inhibition, 48 h
The subject of experiment [1] is MCF7.
Experiment [2] deals with A498.
Experiment [3] deals with MDA-MB-231.
Experiment [4] deals with M14.
The test system of experiment [5] is NCI-H226.
The subject of experiment [6] is ACHN.
Experiment [7] concerns SF-268.
Experiment [8] has as its system T47D.
Experiment [9] has as its system KM12.
In experiment [10] the test system is TK-10.
Experiment [11] relates to HCC 2998.
Experiment [12] relates to SF-539.
The test system of experiment [13] is HL-60.
In experiment [14] the test system is Malme-3M.
Experiment [15] concerns SR.
For experiment [16], the system named is DMS-273.
The subject of experiment [17] is NCI/ADR-RES.
Experiment [18] concerns DLD-1.
For experiment [19], the system named is HOP-18.
In experiment [20] the test system is HOP-92.

With `CCOC(=O)NC(Nc1ncccn1)(C(F)(F)F)C(F)(F)F`, the GI50 in experiment [1], in experiment [2], in experiment [3], in experiment [4], in experiment [5] and in experiment [6] was > 100 µM (inactive) in each case. Besides, the GI50 in experiment [7], in experiment [8], in [9], in experiment [10], in experiment [11] and in [12] was > 100 µM (inactive) each time. Moreover, the GI50 in experiment [13], in experiment [14] and in experiment [15] was > 100 µM (inactive) throughout.

With `Cc1nc(O)nc(O)c1/C=C/C(=O)O`, the GI50 in experiment [1], in [2], in experiment [16], in [5], in experiment [17] and in experiment [18] was > 1000 µM (inactive) throughout. Further, the GI50 in experiment [7], in experiment [19], in experiment [9], in [11], in experiment [12] and in experiment [13] was > 1000 µM (inactive) each time. Moreover, the GI50 is 56.6 µM (inactive) in experiment [20] and > 1000 µM (inactive) in experiment [14].

In the case of `CCN1c2ccccc2-n2c(C)nnc2-c2c(-c3ccccc3)n[nH]c21`, the GI50 in experiment [1] was > 10 µM (inactive); in experiment [3], 18.9 µM (inactive); in [4], 26.4 µM (inactive); in [6], 14.3 µM (inactive); in experiment [17], 11.9 µM (inactive); in experiment [7] it was 35.8 µM (inactive). Besides, the GI50 in experiment [8] was 14.7 µM (inactive); in [9], 26.5 µM (inactive); in experiment [10], 41.4 µM (inactive); in [12] it was 43.4 µM (inactive); in experiment [13], 12.4 µM (inactive); in experiment [20] it was 50.7 µM (inactive). The GI50 in experiment [15] is 13 µM (inactive).

Regarding `Cc1cc(NC(=S)Nc2ccccc2)c(NC(=S)Nc2ccccc2)cc1C`, the GI50 in [1] was 26.6 µM (inactive); in [2], 36.1 µM (inactive); in [16], 17 µM (inactive); in experiment [5] it was 47.6 µM (inactive); in experiment [17], 11.5 µM (inactive); in experiment [18] it was 20.4 µM (inactive). Besides, the GI50 was 36.8 µM (inactive) in [7]; 43.2 µM (inactive) in [19]; 5.11 µM (inactive) in experiment [9]; 20.6 µM (inactive) in experiment [11]; 16 µM (inactive) in experiment [12]; 1.9 µM (inactive) in [13]. For the same compound, the GI50 in [20] was 41.9 µM (inactive); in [14], 37.8 µM (inactive).

In the case of `CC1C(=O)C(C)C(c2ccco2)N(N=O)C1c1ccco1` (stereo not given), the GI50 in experiment [1], in experiment [2], in experiment [16], in experiment [5], in experiment [17] and in [18] was > 100 µM (inactive) each time. Further, the GI50 is > 100 µM (inactive) in experiment [7]; > 67.1 µM (inactive) in [19]; > 100 µM (inactive) in experiment [9]; > 100 µM (inactive) in experiment [11]; > 100 µM (inactive) in experiment [12]; > 100 µM (inactive) in experiment [13]. In addition, the GI50 in experiment [20] was > 68.4 µM (inactive); in experiment [14] it was > 100 µM (inactive).

On to `O=C(N/C(=C\c1ccccc1[N+](=O)[O-])c1nc2ccccc2[nH]1)c1ccccc1`, for which the GI50 in experiment [16] is > 100 µM (inactive); in [4], > 100 µM (inactive); in [18], 93.5 µM (inactive); in experiment [9], > 100 µM (inactive); in [10], > 100 µM (inactive); in [11], > 100 µM (inactive). Besides, the GI50 is 40.1 µM (inactive) in experiment [20], > 100 µM (inactive) in [14] and 37.6 µM (inactive) in experiment [15].

Consider `CCOc1ncn(-c2ccc(NC(=S)Nc3ncccn3)cc2)n1`, for which the GI50 in [1] is 32.7 µM (inactive); in experiment [3], 24.8 µM (inactive); in experiment [4], 31.5 µM (inactive); in [7], > 100 µM (inactive); in [8], 21.7 µM (inactive); in [9] it was > 100 µM (inactive). Besides, the GI50 was 41.3 µM (inactive) in experiment [10]; 25.9 µM (inactive) in experiment [11]; 15.4 µM (inactive) in experiment [12]; 16.2 µM (inactive) in experiment [13]; 33.5 µM (inactive) in experiment [20]; 24 µM (inactive) in experiment [15].

As to `CC(Sc1ccccc1)C(CO)(CO)[N+](=O)[O-]` (stereo not given), the GI50 in experiment [16] was 16.7 µM (inactive); in experiment [4], 16.9 µM (inactive); in experiment [5], 16.5 µM (inactive); in experiment [6] it was 16.9 µM (inactive); in experiment [18], 14.3 µM (inactive); in experiment [7], 22.8 µM (inactive). The GI50 was 21.9 µM (inactive) in experiment [19]; 18.9 µM (inactive) in experiment [10]; 17.2 µM (inactive) in [11]; 16.7 µM (inactive) in [12]; 3.58 µM (inactive) in [13]; 18.9 µM (inactive) in experiment [14]. In experiment [15], the GI50 is 2.34 µM (inactive).

Consider `CCC1C(C#N)=C(O)NC(O)=C1C#N`, for which the GI50 in experiment [2], in [16], in experiment [4], in experiment [5], in experiment [6] and in experiment [18] was > 100 µM (inactive) each time. Further, the GI50 in experiment [7], in [19], in experiment [9], in [10], in experiment [11] and in [12] was > 100 µM (inactive) in each case. For the same compound, the GI50 in experiment [20] and in experiment [14] was > 100 µM (inactive) each time.

With `CCP(=O)(CC)C(Cl)(Cl)C(O)C(Cl)(Cl)Cl` (stereo not given), the GI50 in experiment [1], in experiment [3], in experiment [4], in experiment [5], in experiment [6] and in experiment [17] was > 100 µM (inactive) each time. Further, the GI50 in [8], in experiment [10], in experiment [11], in experiment [13], in experiment [20] and in [15] was > 100 µM (inactive) each time.

As for `O=C(CCN1CCOCC1)/C(=C/c1ccccc1)c1ccccc1`, the GI50 in experiment [1] was 4.28 µM (inactive); in experiment [2] it was 10.1 µM (inactive); in experiment [16], 6.28 µM (inactive); in experiment [5], 7.55 µM (inactive); in experiment [17], 2.48 µM (inactive); in experiment [18] it was 1.89 µM (inactive). Besides, the GI50 in experiment [7] is 7.11 µM (inactive); in experiment [19], 16.7 µM (inactive); in experiment [9] it was 6.25 µM (inactive); in experiment [11], 15 µM (inactive); in experiment [12] it was 2.92 µM (inactive); in experiment [13] it was 1.79 µM (inactive). For the same compound, the results for the GI50 in [20] and in experiment [14] were 3.5 µM (inactive) and 2.24 µM (inactive), respectively.

As to `CCOC(=O)Cc1cc(OC)c(OC)cc1/C(Cl)=C(\C=O)c1ccc(OC)c(OC)c1`, the GI50 in experiment [16] was 19.5 µM (inactive); in experiment [4], 16.1 µM (inactive); in experiment [6], 20.6 µM (inactive); in [18], 16.3 µM (inactive); in experiment [19] it was 28.7 µM (inactive); in [10] it was 26 µM (inactive). The GI50 in [13] is 17.3 µM (inactive); in experiment [20], 1 µM (active); in [14], 27.4 µM (inactive).

As to `CC(=O)c1c(-c2ccco2)c(C#N)c(=S)n(C2OC(CO)C(O)C(O)C2O)c1-c1ccccc1` (stereo not given), the GI50 in experiment [1] was 90.2 µM (inactive); in experiment [3], > 100 µM (inactive); in [4], 40.5 µM (inactive); in experiment [6] it was > 100 µM (inactive); in [17] it was 55.1 µM (inactive); in [7], 61.2 µM (inactive). Also, the GI50 in experiment [8] is 29.4 µM (inactive); in [9], 64.3 µM (inactive); in [10], > 100 µM (inactive); in [12] it was 45.2 µM (inactive); in experiment [13], 41.2 µM (inactive); in experiment [14], 63.2 µM (inactive). Besides, the GI50 in experiment [15] was 68.7 µM (inactive).

As for `COc1ccc(-c2cc(O)c3c(C)ccnc3n2)cc1`, the GI50 was 2.03 µM (inactive) in [1]; 14.3 µM (inactive) in experiment [2]; 49.5 µM (inactive) in experiment [3]; 10.8 µM (inactive) in experiment [4]; 33.5 µM (inactive) in [5]; 21.2 µM (inactive) in experiment [6]. In addition, the GI50 in experiment [17] was 20.2 µM (inactive); in experiment [7], 15.1 µM (inactive); in experiment [8], 7.43 µM (inactive); in experiment [9], 3.18 µM (inactive); in experiment [10], 41.1 µM (inactive); in experiment [11], 22.5 µM (inactive). Also, the GI50 in [12] was 17.4 µM (inactive); in experiment [14], 10.8 µM (inactive).
